For one series, the system named is HIF1-alpha. Put plainly: Measurement of the stabilization of HIF1-alpha in HEKEA cells (beta-galactosidase complementation). Format: cell-based, human. The following applies: HEKEA_HIF1-alphaPLBL cells, 6 hours under normoxia, luminescence; molar concentration that produces 50% of the maximum response of this same compound. The source says: Furthermore, a subject of the invention is also a uniform test for the direct measurement by beta-galactosidase complementation of the amount of HIF1-alpha protein in the nucleus of cells, preferably HEK cells, after treating the said cells with one or more test compounds, which consists in: • (a) inoculating, preferably in 384-well plates, the said cells in a suitable culture medium, preferably 1% foetal calf serum (abbreviated as FCS); • (b) adding the test compound(s) at a suitable concentration in a suitable solvent to the cells previously inoculated in the said culture medium; preferably the test compounds are diluted in 0.1% FCS; • (c) incubating the said cells thus prepared in an indicator at about 37° C., advantageously for about 6 hours; • (d) lysing the cells with a lysis buffer containing a chemiluminescent substrate for beta-galactosidase; • (e) incubating in the absence of light, before reading and measuring the luminescence, which is a function of the beta-galactosidase activity.
The test is a cell test based on the principle of enzyme complementation, the enzyme used herein being beta-galactosidase. HEKEA cells are HEK cells stably expressing, and restricted in their nucleus, mutant beta-galactosidase (omega fragment, also known as EA) (line sold by DiscoverX). This construct makes it possible to obtain beta-galactosidase activity only when the protein comprising the Prolabel complementation fragment has migrated into the nucleus.
The protein of interest comprising the Prolabel fragment is in this case an HIF1-alpha or HIF1-alpha mutated at the two prolines 402 and 564 replaced with alanines, is C-terminal fused via molecular biology (DiscoverX vector sold by Clontech) with the small complementation peptide fragment (Prolabel or ED, about 4 kDa). The vector coding for the chimeric protein HIF1-alpha_Prolabel is then transfected into HEKEA cells to obtain stable clones (HEKEA_HIF1-alphaPLBL).
The amount of C-terminal Prolabel-“labelled” HIF1-alpha protein obtained after treating the cells to hypoxia or compounds that are potentially HIF activators is measured by adding to the cells a lysis buffer containing a chemiluminescent substrate for beta-galactosidase.
The measurement of the beta-galactosidase activity will be proportional to the amount of Prolabel and thus of HIF1-alpha that has migrated into the nucleus of the cells.
1.3.1 Experiment Plan • 1) Inoculation of the cells on D0 • 2) Adherence for 24 hours under normoxia • 3) Preparation and addition of the products (Biomek 2000 and FX) on D+1 • 4) Incubation under normoxia for 6 hours • 5) Reading of the plates (by luminescence)
The cells are inoculated with Multidrop in white, opaque-bottomed 384-well plates (Greiner ref 3704), in 30 μl of culture medium (1% FCS) a 10000 cells/well (cell plate).
The test products are prepared at 3×10^−2 M in 100% DMSO and then diluted to 3×10^−4 M in medium containing 0.1% FCS (10 μl in 990 μl of MEM). They are then deposited by hand into column 12 of a round-bottomed 96-well plate (200 μl of each compound) known as the dilution plate (dl). The complete DL plate of 3×10^−4 M to 10^−9 M is then prepared with Biomek 2000 (programme: range of 10 points in series). For the references and controls, 100 μl of DMEM containing 0.1% FCS are added to column 1, 100 μl of Deferoxamine 10^−3M to column 2, wells A B C D and 100 μl of Deferoxamine 5×10^−3 M to column 2, wells E F G H.
3.3 μL are taken from the DL plate by pipetting with a Biomek FX 96 and placed in horizontal duplicate (columns 1 to 24) in each 384-well cell plate (HEKEA_HIF1-alphaPLBL cell plate).
The cells are then placed for 6 hours in an incubator at 37° C. (ambient O2, 6% CO2).
The kit used is the Prolabel chemiluminescent kit (Ref 93-0001 DiscoverX). […]

This is an account of results in patent US8697731B2, “Derivatives of 2-pyridin-2-yl-pyrazol-3(2H)-one, preparation and therapeutic use thereof” (Sanofi, priority 2008, dated 2014).

Where a name gives a salt, the structure may show the parent alone.

For `Cc1ccc(-n2nc3c(c2[O-])CSC3)nc1.[Na+]` [Compound 31, sodium 2-(5-methylpyridin-2-yl)-2,6-dihydro-4H-thieno[3,4-c]pyrazol-3-olate], the melting point was over 220 °C.

On to `CC(C)c1ccnc(-n2[nH]c3c(c2=O)CSC3)c1` [Compound 65, 2-[4-(propan-2-yl)pyridin-2-yl]-1,2,4,6-tetrahydro-3H-thieno[3,4-c]pyrazol-3-one], for which the melting point worked out at 92 °C.

As to `CCN(CC)S(=O)(=O)c1ccc(-n2[nH]c3c(c2=O)CSC3)nc1` [Compound 38, N,N-diethyl-6-(3-oxo-4,6-dihydro-1H-thieno[3,4-c]pyrazol-2(3H)-yl)pyridine-3-sulfonamide], the melting point was 192 °C. Besides, the EC50 with HIF1-alpha stood at 3.8 µM.

`CN(C)c1ccnc(-n2[nH]c3c(c2=O)CSC3)c1` [Compound 60, 2-[4-(dimethylamino)pyridin-2-yl]-1,2,4,6-tetrahydro-3H-thieno[3,4-c]pyrazol-3-one hydrochloride] registered an EC50 in the series with HIF1-alpha of 21 µM.

Turning to `CN(Cc1ccccn1)S(=O)(=O)c1ccc(-n2[nH]c3c(c2=O)CSC3)nc1` (as salt: HCl) [Compound 27, N-methyl-6-(3-oxo-4,6-dihydro-1H-thieno[3,4-c]pyrazol-2(3H)-yl)-N-(pyridin-2-ylmethyl)pyridine-3-sulfonamide], the melting point was 198 °C.

`CC(C)(C)COC(=O)c1ccc(-n2[nH]c3c(c2=O)CN(S(C)(=O)=O)CC3)nc1` [Compound 54, 2,2-dimethylpropyl 6-[5-(methylsulfonyl)-3-oxo-1,3,4,5,6,7-hexahydro-2H-pyrazolo[4,3-c]pyridin-2-yl]pyridine-3-carboxylate] registered a melting point of 230 °C.

`COC1CCc2c1[nH]n(-c1ccccn1)c2=O` (stereo not shown) [Compound 11, 6-methoxy-2-(pyridin-2-yl)-1,4,5,6-tetrahydrocyclopenta[c]pyrazol-3(2H)-one] had a melting point of 76 °C.

`CN(Cc1ccccn1)S(=O)(=O)c1ccc(-n2[nH]c3c(c2=O)CSC3)nc1` [Compound 27, N-methyl-6-(3-oxo-4,6-dihydro-1H-thieno[3,4-c]pyrazol-2(3H)-yl)-N-(pyridin-2-ylmethyl)pyridine-3-sulfonamide] displayed an EC50 in the series with HIF1-alpha of 9.5 µM.

The molecule `CCc1ccnc(-n2[nH]c3c(c2=O)CSC3)c1` (as salt: Na) [Compound 61, sodium 2-(4-ethylpyridin-2-yl)-2,6-dihydro-4H-thieno[3,4-c]pyrazol-3-olate] had a melting point of over 260 °C.

`Oc1c2c(nn1-c1cc(OCc3cccnc3)ccn1)CSC2` (as salt: Na) [Compound 64, sodium 2-[4-(pyridin-3-ylmethoxy)pyridin-2-yl]-2,6-dihydro-4H-thieno[3,4-c]pyrazol-3-olate] showed a melting point of over 260 °C.

Molecule `CN(C(C)(C)C)S(=O)(=O)c1ccc(-n2nc3c(c2O)CSC3)nc1` (as salt: Na) [Compound 36, sodium 2-{5-[tert-butyl(methyl)sulfamoyl]pyridin-2-yl}-2,6-dihydro-4H-thieno[3,4-c]pyrazol-3-olate] displayed a melting point of 130 °C.

For the molecule `O=c1c2c([nH]n1-c1ccc(S(=O)(=O)N(CC(O)CO)C3CCCC3)cn1)CSC2` (stereo not shown) [Compound 53, N-cyclopentyl-N-(2,3-dihydroxypropyl)-6-(3-oxo-4,6-dihydro-1H-thieno[3,4-c]pyrazol-2(3H)-yl)pyridine-3-sulfonamide], the melting point stood at 190 °C.

The molecule `CN(C)c1ccnc(-n2[nH]c3c(c2=O)CSC3)c1` (as salt: HCl) [Compound 60, 2-[4-(dimethylamino)pyridin-2-yl]-1,2,4,6-tetrahydro-3H-thieno[3,4-c]pyrazol-3-one hydrochloride] gave a melting point of 182 °C.

Molecule `O=c1c2c([nH]n1-c1ccc(S(=O)(=O)Nc3ccccn3)cn1)CSC2` [Compound 23, 6-(3-oxo-4,6-dihydro-1H-thieno[3,4-c]pyrazol-2(3H)-yl)-N-(pyridin-2-yl)pyridine-3-sulfonamide] showed a melting point of over 260 °C. In the series with HIF1-alpha, the EC50 stood at 12 µM.

The molecule `CCN(c1ccccc1)S(=O)(=O)c1ccc(-n2nc3c(c2O)N(Cc2ccccc2)C(=O)CC3)nc1` (as salt: Na) [Compound 35, sodium 4-benzyl-2-{5-[ethyl(phenyl)sulfamoyl]pyridin-2-yl}-5-oxo-4,5,6,7-tetrahydro-2H-pyrazolo[4,3-b]pyridin-3-olate] displayed a melting point of over 250 °C.

Molecule `CC(C)(C)NC(=O)c1ccc(-n2nc3c(c2O)CSC3)nc1` [Compound 33, sodium 2-[5-(tert-butylcarbamoyl)pyridin-2-yl]-2,6-dihydro-4H-thieno[3,4-c]pyrazol-3-olate] yielded an EC50 with HIF1-alpha of 9.4 µM.

Take `Cc1ccnc(-n2nc3c(c2[O-])CSC3)c1.[Na+]` [Compound 62, sodium 2-(4-methylpyridin-2-yl)-2,6-dihydro-4H-thieno[3,4-c]pyrazol-3-olate]: the melting point is over 250 °C. The same molecule registered an EC50 with HIF1-alpha of 3.9 µM.

`CCN(C(C)(C)C)S(=O)(=O)c1ccc(-n2nc3c(c2O)CSC3)nc1` (as salt: Na) [Compound 32, sodium 2-{5-[tert-butyl(ethyl)sulfamoyl]pyridin-2-yl}-2,6-dihydro-4H-thieno[3,4-c]pyrazol-3-olate] gave a melting point of over 260 °C.

`CCN(c1ccccc1)S(=O)(=O)c1ccc(-n2[nH]c3c(c2=O)CCCCCC3)nc1` [Compound 37, N-ethyl-6-(3-oxo-1,3,4,5,6,7,8,9-octahydro-2H-cycloocta[c]pyrazol-2-yl)-N-phenylpyridine-3-sulfonamide] gave a melting point of 200 °C. The molecule further yielded a 50% effective concentration (EC50) in the series on HIF1-alpha of 2.2 µM.

`COc1ccc(-n2nc3c(c2[O-])CSC3)nc1.[Na+]` [Compound 34, sodium 2-(5-methoxypyridin-2-yl)-2,6-dihydro-4H-thieno[3,4-c]pyrazol-3-olate]: the melting point was over 220 °C. The molecule also came in with an EC50 in the series on HIF1-alpha of 10 µM.

`O=c1c2c([nH]n1-c1ccccn1)CCSC2` [Compound 12, 2-(pyridin-2-yl)-1,4,6,7-tetrahydrothiopyrano[4,3-c]pyrazol-3(2H)-one] gave a melting point of 175 °C.

`O=c1c2c([nH]n1-c1ccccn1)CCC2` [Compound 7, 2-(pyridin-2-yl)-1,4,5,6-tetrahydrocyclopenta[c]pyrazol-3(2H)-one] registered a melting point of 156 °C. The molecule further came in with an EC50 in the series on HIF1-alpha of 6 µM.

The term melting point denotes the temperature, or range, at which the solid turns liquid. A word on the EC50: it is the midpoint of the concentration-response curve. Read a high EC50 as a less potent agent.
